Earlier results as cited in patent US10117956B2, “Radiolabeled active targeting pharmaceutical composition and the use thereof” (Institute of Nuclear Energy Research Atomic Energy Council, …, priority 2013, dated 2018).

Conditions: 30 minutes after injection

For `O=C[C@H](O)[C@@H](O)[C@H](O)[C@H](O)CF` [6-FDG, 6-fluoro-6-deoxy-D-glucose], the “concentration in the blood” value is listed as 1.11 % ID/g.
